# How the values were obtained:
# [1] = test system: Leishmania infantum; assay: Antileishmanial activity against promastigote form of Leishmania infantum assessed as inhibition of parasite growth; type: functional, organism-based
# [2] = Cytotoxicity against human erythrocytes; type: cell-based, Erythrocyte
# [3] = test system: Leishmania infantum; assay: Antileishmanial activity against axenic amastigote stage of Leishmania infantum assessed as reduction in parasite growth; type: functional, organism-based
# [4] = Cytotoxicity against PBMC (unknown origin)
# [5] = test system: Leishmania infantum; assay: Antileishmanial activity against axenic amastigote stage of Leishmania infantum assessed as reduction in parasite growth at 6.25 to 12.5 ug/ml; type: functional; details: dose 6.25-12.5 µg/ml; at 6.25 to 12.5 µg/mL
# [6] = Selectivity index, ratio of CC50 for PBMC (unknown origin) to EC50 for anti-leishmanial activity against axenic amastigote stage of Leishmania infantum; type: toxicity; details: read-out: Ratio CC50/EC50
# [7] = test system: Leishmania infantum; assay: Antileishmanial activity against axenic amastigote stage of Leishmania infantum assessed as reduction in parasite growth at 0.7812 ug/ml; type: functional
# [8] = Inhibition of Leishmania donovani Topoisomerase 1
# [9] = Inhibition of Leishmania Trypanothione reductase
SMILES,IC50 [1],HC50 [2],also measured
N#CC1=CC2(c3ccccc3Nc3ccccc32)N(/N=C\c2ccc(F)cc2)C1=O,4.11 µg/mL,> 400 µg/mL,
N#CC1=CC2(c3ccccc3Nc3ccccc32)N(/N=C\c2ccccc2)C1=O,2.04 µg/mL,> 400 µg/mL,EC50 [3]: 4.96 µg/mL; CC50 [4]: 44.2 µg/mL; inhibition (INH) [5]: 65%; selectivity ratio [6]: 8.9; inhibition at 0.7812 µg/mL [7]: 21.7%
N#CC1=CC2(c3ccccc3Nc3ccccc32)N(/N=C\c2ccc([N+](=O)[O-])cc2)C1=O,5.33 µg/mL,> 400 µg/mL,
N#CC1=CC2(c3ccccc3Nc3ccccc32)N(/N=C\c2c(Cl)cccc2Cl)C1=O,2.63 µg/mL,> 400 µg/mL,
N#CC1=CC2(c3ccccc3Nc3ccccc32)N(/N=C\c2ccccc2[N+](=O)[O-])C1=O,3.78 µg/mL,> 400 µg/mL,
N#CC1=CC2(c3ccccc3Nc3ccccc32)N(/N=C\c2ccc(Cl)cc2Cl)C1=O,3.89 µg/mL,> 400 µg/mL,
CN(C)c1ccc(/C=N\N2C(=O)C(C#N)=CC23c2ccccc2Nc2ccccc23)cc1,1.11 µg/mL,> 400 µg/mL,EC50 [3]: 0.974 µg/mL; CC50 [4]: > 100 µg/mL; inhibition (INH) [5]: 65%; selectivity ratio [6]: > 103; inhibition at 0.7812 µg/mL [7]: 33.2%
N#CC1=CC2(c3ccccc3Nc3ccccc32)N(/N=C\c2ccc(Cl)cc2)C1=O,5.68 µg/mL,> 400 µg/mL,
CCOc1cc(/C=N\N2C(=O)C(C#N)=CC23c2ccccc2Nc2ccccc23)ccc1O,6.06 µg/mL,> 400 µg/mL,
C[C@@H]1[C@H](O)[C@@H](C)/C=C/C=C/C=C/C=C/C=C/C=C/C=C/[C@H](O[C@@H]2O[C@H](C)[C@@H](O)[C@H](N)[C@@H]2O)C[C@@H]2O[C@](O)(C[C@@H](O)C[C@@H](O)[C@H](O)CC[C@@H](O)C[C@@H](O)CC(=O)O[C@H]1C)C[C@H](O)[C@H]2C(=O)O [AMPHOTERICIN B],0.9 µg/mL,,EC50 [3]: 1.6 µg/mL; CC50 [4]: 7.63 µg/mL; selectivity ratio [6]: 4.78
CC[C@@]1(O)C(=O)OCc2c1cc1n(c2=O)Cc2cc3ccccc3nc2-1 [CAMPTOTHECIN],,,EC50 [8]: 0.7 µM
CN(C)CCCN1c2ccccc2CCc2ccc(Cl)cc21 [CLOMIPRAMINE],,,IC50 [9]: 3.8 µM
OCCN1CCN(CCCN2c3ccccc3Sc3ccc(Cl)cc32)CC1 [PERPHENAZINE],,,IC50 [9]: 4.88 µM
CCN(CC)CCCC(C)Nc1c2ccc(Cl)cc2nc2ccc(OC)cc12 (stereo unspecified) [QUINACRINE],,,IC50 [9]: 19 µM
